# Laboratory results reported in patent publication US10294202B2, “Pyrrolidinones as herbicides” (FMC Corporation, priority 2013, dated 2019).
# Tests used:
# Assay in all cases: Test D pre-/postemergence herbicide test
# bluegrass = format: in vivo, Poa annua; conditions: Preemergence; for Plant response rating, Bluegrass: scale 0 to 100 (0 no effect, 100 complete control); for Plant response rating: 250 g ai/ha, Bluegrass, scale 0 to 100
# Source text: (§1) Seeds of plant species selected from bluegrass (annual bluegrass, Poa annua), blackgrass (Alopecurus myosuroides), canarygrass (littleseed canarygrass, Phalaris minor), chickweed (common chickweed, Stellaria media), galium (catchweed bedstraw, Galium aparine), bromegrass, downy (downy bromegrass, Bromus tectorum), field poppy (Papaver rhoeas), field violet (Viola arvensis), foxtail, green (green foxtail, Setaria viridis), deadnettle (henbit deadnettle, Lamium amplexicaule), ryegrass, Italian (Italian ryegrass, Lolium multiflorum), kochia (Kochia scoparia), lambsquarters (Chenopodium album), oilseed rape (Brassica napus), pigweed (Amaranthus retroflexus), chamomile (scentless chamomile, Matricaria inodora), Russian thistle (Salsola kali), speedwell (bird's-eye speedwell, Veronica persica), barley, spring (spring barley, Hordeum vulgare), wheat, spring (spring wheat, Triticum aestivum), buckwheat, wild (wild buckwheat, Polygonum convolvulus), mustard, wild (wild mustard, Sinapis arvensis), oat, wild (wild oat, Avena fatua), radish, wild (wild radish, Raphanus raphanistrum), […]), barley, winter (winter barley, Hordeum vulgare), and wheat, winter (winter wheat, Triticum aestivum) were planted into a silt loam soil and treated preemergence with test chemicals formulated in a non-phytotoxic solvent mixture which included a surfactant. At the same time, these species were planted in pots containing Redi-Earth® planting medium (Scotts Company, 14111 Scottslawn Road, Marysville, Ohio 43041) comprising spaghnum peat moss, vermiculite, wetting agent and starter nutrients and treated with postemergence applications of the test chemicals formulated in the same manner. Plants ranged in height from 2 to 18 cm (1- to 4-leaf stage). Treated plants and controls were maintained in a controlled growth environment for 7 to 21 days after which time all species were compared to controls and visually evaluated. Plant response ratings, summarized in Table D, are based on a scale of 0 to 100 where 0 is no effect and 100 is complete control. A dash (-) response means no test result.
# blackgrass = format: in vivo, Alopecurus myosuroides; conditions: Preemergence; for Plant response rating, Blackgrass: scale 0 to 100 (0 no effect, 100 complete control); for Plant response rating: 250 g ai/ha, Blackgrass, scale 0 to 100
# Source text: as §1
# galium = format: in vivo, Galium aparine; conditions: Preemergence; for Plant response rating, Galium: scale 0 to 100 (0 no effect, 100 complete control); for Plant response rating: 250 g ai/ha, Galium, scale 0 to 100
# Source text: as §1
# bromegrass, downy = format: in vivo, Bromus tectorum; conditions: Preemergence; for Plant response rating, Bromegrass, Downy: scale 0 to 100 (0 no effect, 100 complete control); for Plant response rating: 250 g ai/ha, Bromegrass, Downy, scale 0 to 100
# Source text: as §1
# pigweed = format: in vivo, Amaranthus retroflexus; conditions: Preemergence, scale 0 to 100 (0 no effect, 100 complete control)
# Source text: as §1
# speedwell = format: in vivo, Veronica persica; conditions: Preemergence, scale 0 to 100 (0 no effect, 100 complete control)
# Source text: as §1
# mustard, wild = format: in vivo, Sinapis arvensis; conditions: Preemergence; for Plant response rating, Mustard, Wild: scale 0 to 100 (0 no effect, 100 complete control); for Plant response rating: 250 g ai/ha, Mustard, Wild, scale 0 to 100
# Source text: as §1
# oat, wild = format: in vivo, Avena fatua; conditions: Preemergence, scale 0 to 100 (0 no effect, 100 complete control)
# Source text: as §1
SMILES,"Plant response rating, Bluegrass (bluegrass; 31 g ai/ha)","Plant response rating, Bluegrass (bluegrass; 62 g ai/ha)","Plant response rating, Bluegrass (bluegrass; 125 g ai/ha)",Plant response rating (bluegrass),"Plant response rating, Blackgrass (blackgrass; 31 g ai/ha)","Plant response rating, Blackgrass (blackgrass; 62 g ai/ha)","Plant response rating, Blackgrass (blackgrass; 125 g ai/ha)",Plant response rating (blackgrass),"Plant response rating, Galium (galium; 31 g ai/ha)","Plant response rating, Galium (galium; 62 g ai/ha)","Plant response rating, Galium (galium; 125 g ai/ha)",Plant response rating (galium),"Plant response rating, Bromegrass, Downy (bromegrass, downy; 31 g ai/ha)","Plant response rating, Bromegrass, Downy (bromegrass, downy; 62 g ai/ha)","Plant response rating, Bromegrass, Downy (bromegrass, downy; 125 g ai/ha)","Plant response rating (bromegrass, downy)","Plant response rating, Pigweed (pigweed; 31 g ai/ha)","Plant response rating, Pigweed (pigweed; 62 g ai/ha)","Plant response rating, Pigweed (pigweed; 125 g ai/ha)","Plant response rating, Pigweed (pigweed; 250 g ai/ha)",further results
O=C1NCC(c2cccc(C(F)(F)F)c2)C1C(=O)Nc1ccc(F)cc1F (racemic) [Compound 207],0,15,15,30,0,5,20,75,55,60,45,20,0,15,15,15,0,0,0,5,"Plant response rating, Speedwell (speedwell; 31 g ai/ha): 20; Plant response rating, Speedwell (speedwell; 62 g ai/ha): 20; Plant response rating, Speedwell (speedwell; 125 g ai/ha): 25; Plant response rating, Speedwell (speedwell; 250 g ai/ha): 30; Plant response rating, Mustard, Wild (mustard, wild; 31 g ai/ha): 10; Plant response rating, Mustard, Wild (mustard, wild; 62 g ai/ha): 25; Plant response rating, Mustard, Wild (mustard, wild; 125 g ai/ha): 25; Plant response rating (mustard, wild): 30; Plant response rating, Oat, Wild (oat, wild; 31 g ai/ha): 0; Plant response rating, Oat, Wild (oat, wild; 62 g ai/ha): 0; Plant response rating, Oat, Wild (oat, wild; 125 g ai/ha): 5; Plant response rating, Oat, Wild (oat, wild; 250 g ai/ha): 20"
O=C1NCC(c2cccc(C(F)(F)F)c2)C1C(=O)Nc1cccc(F)c1F (stereo not shown) [Compound 241],15,15,45,70,20,55,50,75,20,25,35,80,0,15,15,60,15,15,85,80,"Plant response rating, Speedwell (speedwell; 31 g ai/ha): 10; Plant response rating, Speedwell (speedwell; 62 g ai/ha): 35; Plant response rating, Speedwell (speedwell; 125 g ai/ha): 70; Plant response rating, Speedwell (speedwell; 250 g ai/ha): 85; Plant response rating, Mustard, Wild (mustard, wild; 31 g ai/ha): 10; Plant response rating, Mustard, Wild (mustard, wild; 62 g ai/ha): 15; Plant response rating, Mustard, Wild (mustard, wild; 125 g ai/ha): 15; Plant response rating (mustard, wild): 25; Plant response rating, Oat, Wild (oat, wild; 31 g ai/ha): 15; Plant response rating, Oat, Wild (oat, wild; 62 g ai/ha): 15; Plant response rating, Oat, Wild (oat, wild; 125 g ai/ha): 20; Plant response rating, Oat, Wild (oat, wild; 250 g ai/ha): 55"
